The test system of data set [1] is MKN-45 cells. Briefly: Inhibition of MKN-45 proliferation (MTT). The format is cell-based, human. To be noted: Homo sapiens, MKN-45, MKN-45 proliferation. The procedure:
Inhibition of MKN-45 Proliferation:
Cell proliferation assays were carried out using the high Met expressing human gastric adenocarcinoma cell line, MKN-45, according to the following schedule:
Day 1: Cells were plated in 96-well plates in complete growth medium.
Day 2: Compounds at desired concentrations were added.
Day 5: Cell viability was determined using the 3-[4,5-dimethylthiazol-2-yl]-2,5-diphenyltetrazolium bromide (MTT) dye reduction test.

34 compounds from patent publication US10590129B2 (Incozen Therapeutics Pvt. Ltd., priority 2010, dated 2020) can be followed below.

Each structure is given as a SMILES string. Where a name gives a salt, the structure may show the parent alone.

For the compound `CN(C)CCCNC(=O)c1ccc(-c2ccc3nnn(Cc4ccc5ncccc5c4)c3n2)cc1F` (as salt: hydrochloride) [Ex 121, N-(3-(dimethylamino)propyl)-2-fluoro-4-(3-(quinolin-6-ylmethyl)-3H-[1,2,3]triazolo[4,5-b]pyridin-5-yl)benzamide dihydrochloride], the melting point (as a rule, the temperature of the solid-liquid transition) fell in the range of 137 to 140 °C.

Regarding `OCc1ccc(-c2ccc3nnn(Cc4ccc(F)cc4)c3n2)cc1` [Ex 11, (4-(3-(4-Fluorobenzyl)-3H-[1,2,3]triazolo[4,5-b]pyridin-5-yl)phenyl)methanol], the melting point was 210 to 213 °C.

With `O=C(NC1CCCCC1)c1ccc(-c2ccc3nnn(Cc4ccc5ncccc5c4)c3n2)cc1F` [Ex 45, N-cyclohexyl-2-fluoro-4-(3-(quinolin-6-ylmethyl)-3H-[1,2,3]triazolo[4,5-b]pyridin-5-yl)benzamide], the melting point is 172 to 175 °C.

`NCCCNC(=O)c1ccc(-c2ccc3nnn(Cc4ccc5ncccc5c4)c3n2)cc1F` [Ex 112, N-(3-Aminopropyl)-2-fluoro-4-(3-(quinolin-6-ylmethyl)-3H-[1,2,3]triazolo[4,5-b]pyridin-5-yl)benzamide] came in with a melting point of 292 to 294 °C.

The compound `O=C(NC1CC1)c1ccc(-c2ccc3nnn(Cc4ccc5ncccc5c4)c3n2)cc1Cl` [Ex 113, 2-Chloro-N-cyclopropyl-4-(3-(quinolin-6-ylmethyl)-3H-[1,2,3]triazolo[4,5-b]pyridin-5-yl)benzamide] showed a melting point of 197 to 199 °C.

Compound `CCCn1cc(-c2ccc3nnn(Cc4ccc5ncccc5c4)c3n2)cn1` [Ex 153, 6-((5-(1-Propyl-1H-pyrazol-4-yl)-3H-[1,2,3]triazolo[4,5-b]pyridin-3-yl)methyl)quinoline] came in with a melting point of 128 to 130 °C.

On to `Clc1cc(-c2ccc3nnn(Cc4ccc5ncccc5c4)c3n2)ccn1` [Ex 171, 6-((5-(2-Chloropyridin-4-yl)-3H-[1,2,3]triazolo[4,5-b]pyridin-3-yl)methyl)quinoline], for which the 50% growth inhibitory concentration (GI50) (commonly the concentration at which growth is held to half of that of the control) in data set [1] lay in the range of 150 to 500 nM.

As to `Cc1n[nH]c2ccc(-c3ccc4nnn(Cc5ccc6ncccc6c5)c4n3)cc12` [Ex 172, 6-((5-(3-Methyl-1H-indazol-5-yl)-3H-[1,2,3]triazolo[4,5-b]pyridin-3-yl)methyl)quinoline], the GI50 in data set [1] was under 1000 nM.

As to `c1cncc(-c2ccc3nnn(Cc4ccc5ncccc5c4)c3n2)c1` [Ex 173, 6-((5-(Pyridin-3-yl)-3H-[1,2,3]triazolo[4,5-b]pyridin-3-yl)methyl)quinoline], the GI50 in data set [1] was under 1000 nM.

`c1cnc2ccc(Cn3nnc4ccc(-c5cnn([C@H]6CCNC6)c5)nc43)cc2c1` [Ex 175, (S)-6-((5-(1-(Pyrrolidin-3-yl)-1H-pyrazol-4-yl)-3H-[1,2,3]triazolo[4,5-b]pyridin-3-yl)methyl)quinoline hydrochloride] had a GI50 in data set [1] of 150 to 500 nM.

With `c1cnc2ccc(Cn3nnc4ccc(-c5cnn(CCN6CCOCC6)c5)nc43)cc2c1` [Ex 176, 4-(2-(4-(3-(Quinolin-6-ylmethyl)-3H-[1,2,3]triazolo[4,5-b]pyridin-5-yl)-1H-pyrazol-1-yl)ethyl)morpholine hydrochloride], the concentration for 50% growth inhibition (GI50) in data set [1] was under 1000 nM.

Regarding `c1cnc2ccc(Cn3nnc4ccc(-c5cnn(C6CCOCC6)c5)nc43)cc2c1` [Ex 177, 6-((5-(1-(Tetrahydro-2H-pyran-4-yl)-1H-pyrazol-4-yl)-3H-[1,2,3]triazolo[4,5-b]pyridin-3-yl)methyl)quinoline], in data set [1], the GI50 was under 1000 nM.

In data set [1], `Cc1nn(C)c2cc(-c3ccc4nnn(Cc5ccc6ncccc6c5)c4n3)ccc12` [Ex 179, 6-((5-(1,3-dimethyl-1H-indazol-6-yl)-3H-[1,2,3]triazolo[4,5-b]pyridin-3-yl)methyl)quinoline] showed a GI50 of 150 to 500 nM.

On to `CCc1nn(C(=O)OC(C)(C)C)c2cc(-c3ccc4nnn(Cc5ccc6ncccc6c5)c4n3)ccc12` [Ex 181, tert-Butyl 3-ethyl-6-(3-(quinolin-6-ylmethyl)-3H-[1,2,3]triazolo[4,5-b]pyridin-5-yl)-1H-indazole-1-carboxylate], for which, in data set [1], the inhibition (as a rule, the share of the control response that was lost under treatment) at 0.1 µM was under 25% and the inhibition at 1 µM fell in the range of 75 to 100%.

In data set [1], `CC(C)(c1ccc2ncccc2c1)n1nnc2ccc(-c3cnn(CCO)c3)nc21` [Ex 190, 2-(4-(3-(2-(Quinolin-6-yl)propan-2-yl)-3H-[1,2,3]triazolo[4,5-b]pyridin-5-yl)-1H-pyrazol-1-yl)ethanol] yielded an inhibition at 0.1 µM of under 25% and an inhibition at 1 µM of under 25%.

In data set [1], `CC(C)(c1ccc2ncccc2c1)n1nnc2ccc(-c3cn[nH]c3)nc21` [Ex 192, 6-(2-(5-(1H-Pyrazol-4-yl)-3H-[1,2,3]triazolo[4,5-b]pyridin-3-yl)propan-2-yl)quinoline] came in with an inhibition at 0.1 µM of under 25% and an inhibition at 1 µM of under 25%.

`O=C(Cn1cc(-c2ccc3nnn(Cc4ccc5ncccc5c4)c3n2)cn1)N1CCCC1` [Ex 200, 1-(Pyrrolidin-1-yl)-2-(4-(3-(quinolin-6-ylmethyl)-3H-[1,2,3]triazolo[4,5-b]pyridin-5-yl)-1H-pyrazol-1-yl)ethanone] showed an inhibition at 0.1 µM in data set [1] of under 25%.

`COCCn1cc(-c2ccc3nnn(Cc4ccc5ncccc5c4)c3n2)cn1` [Ex 201, 6-((5-(1-(2-Methoxyethyl)-1H-pyrazol-4-yl)-3H-[1,2,3]triazolo[4,5-b]pyridin-3-yl)methyl)quinoline] came in with an inhibition at 0.1 µM in data set [1] of under 25%.

`c1ccc(Nc2ccc3nnn(Cc4ccc5ncccc5c4)c3n2)cc1` [Ex 202, N-Phenyl-3-(quinolin-6-ylmethyl)-3H-[1,2,3]triazolo[4,5-b]pyridin-5-amine] returned an inhibition at 0.1 µM in data set [1] of under 25%.

`c1ccc(Oc2ccc3nnn(Cc4ccc5ncccc5c4)c3n2)cc1` [Ex 203, 6-((5-Phenoxy-3H-[1,2,3]triazolo[4,5-b]pyridin-3-yl)methyl)quinoline] gave an inhibition at 0.1 µM in data set [1] of under 25%.

Regarding `NC(=O)c1cc(-c2ccc3nnn(Cc4ccc5ncccc5c4)c3n2)ccc1F` [Ex 206, 2-Fluoro-5-(3-(quinolin-6-ylmethyl)-3H-[1,2,3]triazolo[4,5-b]pyridin-5-yl)benzamide], in data set [1], the inhibition at 0.1 µM was 50 to 75%.

As to `NC(=O)c1ccc(-c2ccc3nnn(Cc4c(F)cc5ncccc5c4F)c3n2)cc1Cl` [Ex 207, 2-Chloro-4-(3-((5,7-difluoroquinolin-6-yl)methyl)-3H-[1,2,3]triazolo[4,5-b]pyridin-5-yl)benzamide], in data set [1], the GI50 is at most 50 nM and the inhibition at 0.1 µM lay within 75 to 100%.

`C/C(=N/NC(N)=O)c1ccc2nnn(Cc3ccc4ncccc4c3)c2n1` [Ex 209, 2-(1-(3-(Quinolin-6-ylmethyl)-3H-[1,2,3]triazolo[4,5-b]pyridin-5-yl)ethylidene) hydrazinecarboxamide]: in data set [1], the GI50 was at most 50 nM and the inhibition at 0.1 µM lay within 75 to 100%.

In data set [1], `NC(=O)c1ccc(-c2ccc3nnn(Cc4ccc5ncsc5c4)c3n2)cc1Cl` [Ex 210, 4-(3-(Benzo[d]thiazol-6-ylmethyl)-3H-[1,2,3]triazolo[4,5-b]pyridin-5-yl)-2-chlorobenzamide] came in with a GI50 of at most 50 nM and an inhibition at 0.1 µM of 75 to 100%.

On to `CC(C)(O)c1ccc(-c2ccc3nnn(Cc4ccc5ncccc5c4)c3n2)cc1F` [Ex 211, 2-(2-Fluoro-4-(3-(quinolin-6-ylmethyl)-3H-[1,2,3]triazolo[4,5-b]pyridin-5-yl)phenyl)propan-2-ol], for which the GI50 in data set [1] was in the range of 150 to 500 nM.

In data set [1], `NC(=O)c1cc(-c2ccc3nnn(Cc4ccc5ncccc5c4)c3n2)ccc1Cl` [Ex 212, 2-Chloro-5-(3-(quinolin-6-ylmethyl)-3H-[1,2,3]triazolo[4,5-b]pyridin-5-yl)benzamide] showed an inhibition at 0.1 µM of 75 to 100% and an inhibition at 1 µM of 25 to 50%.

Regarding `NC(=O)c1ccc(-c2ccc3ncn(Cc4ccc5ncccc5c4)c3n2)cc1Cl` [Ex 215, 2-Chloro-4-(3-(quinolin-6-ylmethyl)-3H-imidazo[4,5-b]pyridin-5-yl)benzamide], in data set [1], the inhibition at 0.1 µM was under 25%.

Regarding `CC(=NO)c1ccc2nnn(Cc3ccc4ncccc4c3)c2n1` [Ex 216, 1-(3-(Quinolin-6-ylmethyl)-3H-[1,2,3]triazolo[4,5-b]pyridin-5-yl)ethanone oxime], the inhibition at 0.1 µM in data set [1] was under 25%.

`CON=C(C)c1ccc2nnn(Cc3ccc4ncccc4c3)c2n1` [Ex 217, 1-(3-(Quinolin-6-ylmethyl)-3H-[1,2,3]triazolo[4,5-b]pyridin-5-yl)ethanone O-methyl oxime]: the inhibition at 0.1 µM in data set [1] was in the range of 50 to 75%.

The compound `CC(=O)NN=C(C)c1ccc2nnn(Cc3ccc4ncccc4c3)c2n1` [Ex 218, N′-(1-(3-(Quinolin-6-ylmethyl)-3H-[1,2,3]triazolo[4,5-b]pyridin-5-yl)ethylidene) acetohydrazide] yielded an inhibition at 0.1 µM in data set [1] of under 25%.

Turning to `CN1CCN(c2ccc3nnn(Cc4ccc5ncccc5c4)c3n2)CC1` [Ex 219, 6-((5-(4-Methylpiperazin-1-yl)-3H-[1,2,3]triazolo[4,5-b]pyridin-3-yl)methyl)quinoline], the inhibition at 0.1 µM in data set [1] was under 25%.

In data set [1], `NC(=O)c1ccc(-c2ccc3nnn(Cc4ccc5ncccc5c4)c3n2)cc1C(F)(F)F` [Ex 223, 4-(3-(Quinolin-6-ylmethyl)-3H-[1,2,3]triazolo[4,5-b]pyridin-5-yl)-2-(trifluoromethyl)benzamide] displayed an inhibition at 0.1 µM of 75 to 100%.

Turning to `NC(=O)c1ccc(-c2ccc3nnn(Cc4ccc5c(ccc[n+]5[O-])c4)c3n2)cc1Cl` [Ex 224, 6-((5-(4-carbamoyl-3-chlorophenyl)-3H-[1,2,3]triazolo[4,5-b]pyridin-3-yl)methyl)quinoline 1-oxide], the inhibition at 0.1 µM in data set [1] lay within 25 to 50%.

`CCNC(=O)c1ccc(-c2ccc3nnn(Cc4ccc5ncccc5c4)c3n2)cc1Cl` [Ex 225, 2-chloro-N-ethyl-4-(3-(quinolin-6-ylmethyl)-3H-[1,2,3]triazolo[4,5-b]pyridin-5-yl)benzamide hydrochloride]: in data set [1], the inhibition at 0.1 µM lay in the range of 75 to 100% and the inhibition at 1 µM was 50 to 75%.
